Data as given in the supplement of paper PMC11451515.

Tested on: NOMO1
Experiment: cell viability relative to DMSO control; higher = less cytotoxic
Settings: 48 h
Method in brief: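 Before seeding, each leukemia line was adapted for at least four passages in each medium. NOMO1 or SEM cells (500 cells/well) and P12-Ichikawa cells (1000 cells/well) went into 1536-well plates at 5 μl, then received library compounds in DMSO by pin dosing across 11 threefold concentrations, 47 μM to 0.79 nM. Readout was CellTiter-Glo One luminescence after 48 h at 37°C, and viability is given as a per-plate percentage of DMSO wells, with cell-free wells as background.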

[1] = HPLM + 10% dialyzed FBS, 0.000781 µM
[2] = HPLM + 10% dialyzed FBS, 0.00234 µM
[3] = HPLM + 10% dialyzed FBS, 0.00702 µM
[4] = HPLM + 10% dialyzed FBS, 0.0211 µM
[5] = HPLM + 10% dialyzed FBS, 0.0632 µM
[6] = HPLM + 10% dialyzed FBS, 0.19 µM
[7] = HPLM + 10% dialyzed FBS, 0.569 µM
[8] = HPLM + 10% dialyzed FBS, 1.71 µM
[9] = HPLM + 10% dialyzed FBS, 5.12 µM
[10] = HPLM + 10% dialyzed FBS, 15.4 µM
[11] = HPLM + 10% dialyzed FBS, 46.1 µM
[12] = RPMI 5 mM glucose + 10% FBS, 0.000781 µM
[13] = RPMI 5 mM glucose + 10% FBS, 0.00234 µM
[14] = RPMI 5 mM glucose + 10% FBS, 0.00702 µM
[15] = RPMI 5 mM glucose + 10% FBS, 0.0211 µM
[16] = RPMI 5 mM glucose + 10% FBS, 0.0632 µM
[17] = RPMI 5 mM glucose + 10% FBS, 0.19 µM
[18] = RPMI 5 mM glucose + 10% FBS, 0.569 µM
[19] = RPMI 5 mM glucose + 10% FBS, 1.71 µM
[20] = RPMI 5 mM glucose + 10% FBS, 5.12 µM
[21] = RPMI 5 mM glucose + 10% FBS, 15.4 µM
[22] = RPMI 5 mM glucose + 10% FBS, 46.1 µM
[23] = RPMI 5 mM glucose + 10% dialyzed FBS, 0.000781 µM
[24] = RPMI 5 mM glucose + 10% dialyzed FBS, 0.00234 µM
[25] = RPMI 5 mM glucose + 10% dialyzed FBS, 0.00702 µM
[26] = RPMI 5 mM glucose + 10% dialyzed FBS, 0.0211 µM
[27] = RPMI 5 mM glucose + 10% dialyzed FBS, 0.0632 µM
[28] = RPMI 5 mM glucose + 10% dialyzed FBS, 0.19 µM
[29] = RPMI 5 mM glucose + 10% dialyzed FBS, 0.569 µM
[30] = RPMI 5 mM glucose + 10% dialyzed FBS, 1.71 µM
[31] = RPMI 5 mM glucose + 10% dialyzed FBS, 5.12 µM
[32] = RPMI 5 mM glucose + 10% dialyzed FBS, 15.4 µM
[33] = RPMI 5 mM glucose + 10% dialyzed FBS, 46.1 µM

| Structure (SMILES) | cell viability [1] | cell viability [2] | cell viability [3] | cell viability [4] | cell viability [5] | cell viability [6] | cell viability [7] | cell viability [8] | cell viability [9] | cell viability [10] | cell viability [11] | cell viability [12] | cell viability [13] | cell viability [14] | cell viability [15] | cell viability [16] | cell viability [17] | cell viability [18] | cell viability [19] | cell viability [20] | cell viability [21] | cell viability [22] | cell viability [23] | cell viability [24] | cell viability [25] | cell viability [26] | cell viability [27] | cell viability [28] | cell viability [29] | cell viability [30] | cell viability [31] | cell viability [32] | cell viability [33] |
| --- | --- | --- | --- | --- | --- | --- | --- | --- | --- | --- | --- | --- | --- | --- | --- | --- | --- | --- | --- | --- | --- | --- | --- | --- | --- | --- | --- | --- | --- | --- | --- | --- | --- |
| NC[C@H](O)c1ccc(O)c(O)c1 | 115% | 117% | 119% | 104% | 120% | 104% | 90.7% | 85.7% | 97.7% | 86.9% | 72.4% | 96.7% | 86.8% | 112% | 95.7% | 105% | 91% | 87.3% | 91.2% | 99.2% | 97.5% | 78% | 93.2% | 90.3% | 99% | 91% | 88.1% | 85.4% | 86.6% | 93.4% | 83.3% | 88.6% | 87.7% |
| CC(=O)N(O)CCCCCNC(=O)CCC(=O)N(O)CCCCCNC(=O)CCC(=O)N(O)CCCCCN.C[S+](=O)([O-])O | 90.9% | 83.7% | 81.8% | 32.6% | 34% | 34.6% | 28.3% | 27.2% | 27.7% | 23.6% | 21.5% | 88.8% | 97.4% | 115% | 45.7% | 28.1% | 17.6% | 24.9% | 20.9% | 16.4% | 10.6% | 12.5% | 86% | 105% | 113% | 106% | 79.1% | 26.3% | 26.4% | 21.4% | 23.8% | 18.2% | 17.4% |
| Cc1cccc(-c2[nH]c(C(C)(C)C)nc2-c2ccc3nccnc3c2)n1 | 113% | 135% | 110% | 117% | 111% | 133% | 123% | 128% | 112% | 114% | 47% | 133% | 121% | 117% | 124% | 123% | 98.2% | 124% | 106% | 106% | 114% | 96.6% | 119% | 112% | 122% | 108% | 113% | 119% | 120% | 118% | 112% | 98.2% | 51.4% |
| O=C(NOCC1CC1)c1ccc(F)c(F)c1Nc1ccc(I)cc1Cl | 97.2% | 109% | 123% | 115% | 99.1% | 91.7% | 74.7% | 68.5% | 52% | 49.3% | 41.4% | 84.5% | 91.6% | 100% | 112% | 95.1% | 93.8% | 73.5% | 83.5% | 56.9% | 46.9% | 50% | 95.7% | 108% | 97.2% | 107% | 92.4% | 86.8% | 82.1% | 75.6% | 44.2% | 42.8% | 44.4% |
| CC(C)C[C@H](CC(=O)O)C(=O)N[C@@H](Cc1c[nH]c2ccccc12)C(=O)N[C@@H](C)c1ccccc1 | 122% | 114% | 124% | 112% | 109% | 123% | 104% | 116% | 95.9% | 60.9% | 37.3% | 91.3% | 93.9% | 105% | 103% | 109% | 109% | 107% | 107% | 105% | 74.8% | 29.5% | 104% | 115% | 105% | 105% | 114% | 114% | 116% | 127% | 113% | 113% | 56.6% |
| c1cc2c(cc1[C@H]1OC[C@H]3[C@@H]1CO[C@@H]3c1ccc3c(c1)OCO3)OCO2 | 115% | 120% | 135% | 112% | 134% | 143% | 139% | 138% | 118% | 131% | 124% | 113% | 122% | 129% | 130% | 146% | 138% | 139% | 125% | 119% | 136% | 130% | 119% | 127% | 123% | 130% | 139% | 137% | 125% | 164% | 117% | 129% | 137% |
| OC(=O)CNC(=O)\C1=C(/O)C2=CC=CC=C2N(CC3=CC=CC=C3)C1=O | 98.2% | 109% | 92% | 112% | 108% | 97.7% | 105% | 87.3% | 109% | 101% | 93.6% | 83.7% | 89.5% | 100% | 91.7% | 96.3% | 93% | 96.2% | 83.5% | 84.9% | 85.1% | 86.4% | 93% | 94.6% | 87.9% | 101% | 95.7% | 94% | 97.2% | 102% | 94.7% | 93% | 74.3% |
| OC1CCC(CC1)N2\C=N/C3=C(C2=N)C(=C([N]3CC4=CC=CC=C4)C5=CC=CC=C5)C6=CC=CC=C6 (configuration not stated) | 115% | 133% | 121% | 144% | 142% | 130% | 130% | 93.8% | 81% | 74.9% | 9.01% | – | – | – | – | – | – | – | – | – | – | – | – | – | – | – | – | – | – | – | – | – | – |
